Among the data in ChEMBL document CHEMBL5584256, “Bromine/Sulfur-Substituted 9H-Carbazoles Produced by the Marine-Derived Streptomyces sp. OUCMDZ-5511 upon NaBr Exposure” (J Nat Prod, 2024) are Activity and LC50 values, retold here.

SMILES strings stand for the structures. Calls of active or inactive are those of the source. The calls are words filed in the database; no cut-off is given here.

The species entered for data set [1] is Danio rerio. In words: Anti-inflammatory activity in transgenic zebrafish harboring Tg (zlyz:EGFP) assessed as reduction in CuSO4-induced immune cell migration at 10 uM preincubated for 2 hrs followed by CuSO4 treatment for 45 mins by fluorescence microscopy. The class given is functional, organism-based. Conditions: time 165.0 min.
The species entered for data set [2] is Danio rerio. In words: Anti-inflammatory activity in transgenic zebrafish harboring Tg (zlyz:EGFP) assessed as reduction in CuSO4-induced I-kappa-b-alpha mRNA level at 5 to 15 uM preincubated for 2 hrs followed by CuSO4 treatment for 45 mins […]. The class given is functional, organism-based. Conditions: dose 5-15 µM, time 165.0 min.

The species named for data set [3] is Danio rerio. In words: Anti-inflammatory activity in transgenic zebrafish harboring Tg (zlyz:EGFP) assessed as reduction in CuSO4-induced TRAF6 mRNA level at 5 to 15 uM preincubated for 2 hrs followed by CuSO4 treatment for 45 mins […]. It counts as functional, organism-based. Conditions: dose 5-15 µM, time 165.0 min.
The species entered for data set [4] is Danio rerio. In words: Anti-inflammatory activity in transgenic zebrafish harboring Tg (zlyz:EGFP) assessed as reduction in CuSO4-induced MAP3K7 mRNA level at 5 to 15 uM preincubated for 2 hrs followed by CuSO4 treatment for 45 mins […]. Conditions: dose 5-15 µM, time 165.0 min. It counts as functional, organism-based.
The species named for data set [5] is Danio rerio. In words: Anti-inflammatory activity in transgenic zebrafish harboring Tg (zlyz:EGFP) assessed as reduction in CuSO4-induced IL-8 mRNA level at 5 to 15 uM preincubated for 2 hrs followed by CuSO4 treatment for 45 mins […]. It counts as functional, organism-based. As to conditions: dose 5-15 µM, time 165.0 min.
For data set [6], the species on record is Danio rerio. In words: Anti-inflammatory activity in transgenic zebrafish harboring Tg (zlyz:EGFP) assessed as reduction in CuSO4-induced immune cell migration at 5 to 15 uM preincubated for 2 hrs followed by CuSO4 treatment for 45 mins by fluorescence microscopy. It counts as functional, organism-based. Conditions: dose 5-15 µM, time 165.0 min.
The species entered for data set [7] is Danio rerio. In words: Anti-inflammatory activity in transgenic zebrafish harboring Tg (zlyz:EGFP) assessed as reduction in CuSO4-induced IRAK4 mRNA level at 5 to 15 uM preincubated for 2 hrs followed by CuSO4 treatment for 45 mins […]. It counts as functional, organism-based. Conditions: dose 5-15 µM, time 165.0 min.
For data set [8], the species on record is Danio rerio. In words: Anti-inflammatory activity in transgenic zebrafish harboring Tg (zlyz:EGFP) assessed as reduction in CuSO4-induced IKK-beta mRNA level at 5 to 15 uM preincubated for 2 hrs followed by CuSO4 treatment for 45 mins […]. The class given is functional, organism-based. As to conditions: dose 5-15 µM, time 165.0 min.

The species entered for data set [9] is Danio rerio. In words: Anti-inflammatory activity in transgenic zebrafish harboring Tg (zlyz:EGFP) assessed as reduction in CuSO4-induced p38 mRNA level at 5 to 15 uM preincubated for 2 hrs followed by CuSO4 treatment for 45 mins […]. As to conditions: dose 5-15 µM, time 165.0 min. It counts as functional, organism-based.
For data set [10], the species on record is Danio rerio. In words: Anti-inflammatory activity in transgenic zebrafish harboring Tg (zlyz:EGFP) assessed as reduction in CuSO4-induced AP-1 mRNA level at 5 to 15 uM preincubated for 2 hrs followed by CuSO4 treatment for 45 mins […]. The class given is functional, organism-based. Conditions: dose 5-15 µM, time 165.0 min.
For data set [11], the species on record is Danio rerio. In words: Anti-inflammatory activity in transgenic zebrafish harboring Tg (zlyz:EGFP) assessed as reduction in CuSO4-induced MYD88 mRNA level at 5 to 15 uM preincubated for 2 hrs followed by CuSO4 treatment for 45 mins […]. It counts as functional, organism-based. Conditions: dose 5-15 µM, time 165.0 min.
The species entered for data set [12] is Danio rerio. In words: Anti-inflammatory activity in transgenic zebrafish harboring Tg (zlyz:EGFP) assessed as reduction in CuSO4-induced NF-kappa-b mRNA level at 5 to 15 uM preincubated for 2 hrs followed by CuSO4 treatment for 45 mins […]. It counts as functional, organism-based. Conditions: dose 5-15 µM, time 165.0 min.
The species named for data set [13] is Danio rerio. In words: Anti-inflammatory activity in transgenic zebrafish harboring Tg (zlyz:EGFP) assessed as reduction in CuSO4-induced TGF-beta mRNA level at 5 to 15 uM preincubated for 2 hrs followed by CuSO4 treatment for 45 mins […]. The class given is functional, organism-based. As to conditions: dose 5-15 µM, time 165.0 min.
The species named for data set [14] is Danio rerio. In words: Anti-inflammatory activity in transgenic zebrafish harboring Tg (zlyz:EGFP) assessed as reduction in CuSO4-induced IRAK1 mRNA level at 5 to 15 uM preincubated for 2 hrs followed by CuSO4 treatment for 45 mins […]. As to conditions: dose 5-15 µM, time 165.0 min. The class given is functional, organism-based.
The species named for data set [15] is Danio rerio. In words: Anti-inflammatory activity in transgenic zebrafish harboring Tg (zlyz:EGFP) assessed as increase in CuSO4-reduced PPAR-gamma mRNA level at 5 to 15 uM preincubated for 2 hrs followed by CuSO4 treatment for 45 mins […]. The class given is functional, organism-based. Conditions: dose 5-15 µM, time 165.0 min.
Data set [16] can be described thus: Toxicity in transgenic zebrafish harboring Tg (zlyz:EGFP) preincubated for 2 hrs followed by CuSO4 treatment for 45 mins. More on the design: species or system Danio rerio. Conditions: in vivo, time 165 min.

As to `COc1ccc2[nH]c3c(ccc4scnc43)c2c1Br`, in the data set listed under Danio rerio [1], the result was Active.

For orientation: LC50 means the concentration that kills 50% of the test population. As to `COc1ccc2[nH]c3c(O)cccc3c2c1Br`, the outcome in the data set listed under Danio rerio [1], in the data set listed under Danio rerio [2], in the data set filed under Danio rerio [3], in the data set filed under Danio rerio [4], in the data set filed under Danio rerio [5] and in the data set filed under Danio rerio [6] was Active. Further, the outcome in the data set listed under Danio rerio [7], in the data set filed under Danio rerio [8], in the data set listed under Danio rerio [9], in the data set filed under Danio rerio [10], in the data set listed under Danio rerio [11] and in the data set filed under Danio rerio [12] was Active. Also, the outcome in the data set filed under Danio rerio [13], in the data set filed under Danio rerio [14] and in the data set filed under Danio rerio [15] was Active. In data set [16], this molecule registered a 50% lethal concentration (LC50) at 0.75 h of 68 µM.
